Measurements reported in US11173144B2, “Adrenergic receptor modulating compounds and methods of using the same” (The Board of Trustees of the Leland Stanford Junior …, priority 2016, dated 2021).
Read-outs that look alike come from different tables or passages of the source.

How the values were obtained:
[1] = target: panel of CNS relevant targets, including G-protein coupled receptor and transporters; experiment: Screen against a panel of CNS relevant targets (off-target affinity); assay type: binding; settings: broad range of neurotransmitter transporters, ion channels and other CNS proteins
Text: From a drug development perspective, characterizing the off-target effects of lead compounds is an important issue, as interactions with off-target molecules may lead to undesirable side effects. Thus we screened xamoterol (S) and the key compound compound 43 against a panel of CNS relevant targets, including G-protein coupled receptor and transporters. […].

[2] = system: LPS-induced TNF-α production in primary microglia; experiment: In vitro primary microglia TNF-α assay (LPS stimulation, ELISA); assay type: cell-based, rat; settings: 4 h
Text: Mixed glial cells are obtained from the cerebral cortex of Sprague Dawley rat pups at postnatal days 1-3. Briefly, neonates are euthanized by decapitation and their brain tissues are collected for isolation of cortex. The isolated cortex was then trypsinized, triturated, and placed onto tissue culture flasks in DMEM supplemented with 10% fetal bovine serum and 1% Penicillin/Streptomycin. After 10 days in vitro, microglia are harvested by gentle shaking of the growth flask, plated in a 96 well plate at a density of 30,000 cells/well, and incubated at 37° C. overnight. […] Following the 4 h incubation, cell media is collected and the concentration of TNF-α is measured by ELISA (Invitrogen, KRC3011) according to the manufacturer's instruction.
The effects of selected compounds on cellular inflammatory response to LPS are determined in primary microglia extracted from a rat. Briefly, mixed glial cells are obtained from the cerebral cortex of Sprague Dawley rat pups at postnatal days 1-3 and cultured in DMEM supplemented with 10% fetal bovine serum. After 7 days in vitro, microglia are harvested by gentle shaking of the growth flask and plated in a 96 well plate at the density of 3×10^4 cells/well. The cells are used following day. Effects of compounds on LPS-induced TNFα production are determined by incubating cells with LPS along with or without test compounds for 4 hours. Following the 4 hour incubation, cell media are collected and concentration of TNFα was measured by EUSA.

[3] = system: LPS-induced TNF-α response; experiment: In vivo LPS assay; set-up: species or system C57BI/6J mice; settings: mice, 3 mg/kg 15 min prior to LPS, 90 min post-LPS
Procedure: Amplification is performed using StepOnePlus (Applied Biosystems).
Following injections, mice are single-housed. At 90 min post-LPS/saline, mice are deeply anesthetized with isoflurane and blood is collected from the right ventricle via cardiac puncture (23 g needle) into lithium heparin-containing vials (BD microtainer plasma tubes). Plasma is separated by centrifugation (11,000 rpm for 3 minutes) within 30 min of collection and stored at −80° C. until analysis. The concentration of TNF-α in the collected plasma is measured by ELISA (Invitrogen, KMC3012) according to the manufacturer's instruction.

ADRB1 [4] = target: T1, ADRB1 (Homo sapiens (Human), UniProt P08588); experiment: cAMP assay (homogenous time-resolved fluorescence) in HEK-293 cells stably expressing human recombinant ADRB1; assay type: cell-based; settings: for Emax: HEK293, 0.5 h, percent efficacy compared to the maximum response achieved with isoproterenol, read-out: cAMP pathway % Iso max
T1 sequence (P08588 whole entry): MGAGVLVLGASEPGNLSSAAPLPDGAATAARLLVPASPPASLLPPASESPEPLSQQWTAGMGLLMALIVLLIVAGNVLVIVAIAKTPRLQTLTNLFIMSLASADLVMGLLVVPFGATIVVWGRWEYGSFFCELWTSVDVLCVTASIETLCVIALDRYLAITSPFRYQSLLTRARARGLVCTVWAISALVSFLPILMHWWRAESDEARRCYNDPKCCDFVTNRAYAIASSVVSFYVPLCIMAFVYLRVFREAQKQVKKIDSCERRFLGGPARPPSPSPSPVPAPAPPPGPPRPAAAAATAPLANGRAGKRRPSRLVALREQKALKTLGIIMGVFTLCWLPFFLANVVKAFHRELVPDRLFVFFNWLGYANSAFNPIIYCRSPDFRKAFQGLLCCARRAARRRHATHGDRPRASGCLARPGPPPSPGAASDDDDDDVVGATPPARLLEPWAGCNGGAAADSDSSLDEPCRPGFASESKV
Procedure: Pharmacological effects of compounds at the cAMP pathway mediated by ADRB1 are evaluated by measuring cAMP production using the homogenous time-resolved fluorescence detection method with HEK-293 cells stably expressing human recombinant ADRB1. Briefly, cells are suspended in HBSS buffer completed with 20 mM HEPES (pH 7.4) and 500 μM IBMX (3-isobutyl-1-methylxanthine) and distributed at a density of 3×10^3 cells/well. […] The results are expressed as a percent of the maximum efficacy achieved with isoproterenol. Pharmacological effects of compounds at the cAMP pathway mediated by ADRB2 and ADRB3 are measured as described above using CHO cells stably expressing human recombinant ADRB2 and human SK-N-MC neurotumor cells endogenously expressing ADRB3, respectively.
After 30 minute incubation with compounds, the cells are lysed and the fluorescence donor (Europium-chelated-labeled cAMP tracer; Eu-cAMP tracer) and fluorescence acceptor (cAMP-specific monoclonal antibodies labeled with the ULight™ dye) are added. […] The results are expressed as a percent of the control response to 10 μM isoproterenol. For subtype selectivity determination, same procedure is performed using Chinese hamster ovary (CHO) cells stably expressing human β2-adrenergic receptors or SK-N-MC human neuroblastoma cell line expressing β3-adrenergic receptors.
(§1) ADRB1 EC50 from functional assay (nM)^a, Determined using the homogenous time-resolved fluorescence detection method with HEK-293 cells stably expressing human recombinant ADRB1. ADRB2 IC50 from binding assay(nM)^b, Determined using the Tag-lite Adrenoceptor Beta2 receptor ligand binding assay.

ADRB1 [5] = target: T1, ADRB1; experiment: β-arrestin assay (PathHunter enzyme fragment complementation, CHO-K1-ADRB1 cells); assay type: cell-based; settings: for β-arrestin pathway % Iso max: percent efficacy compared to the maximum response achieved with isoproterenol; for concentration-dependent response at the β-arrestin pathway: up to 30 μM
Procedure: Pharmacological activity of compounds in the β-arrestin pathway mediated by ADRB1 are evaluated using an enzyme fragment complementation method with a β-galactosidase functional reporter. An engineered CHO-K1-ADRB1 PathHunter cell line (DiscoveRx) is used in the assay. In this cell line, enzyme acceptor (β-galactosidase fragment) is fused to β-arrestin and enzyme donor (β-galactosidase fragment) is fused to the ADRB1. Thus, activation of the ADRB1 stimulates binding of β-arrestin to the ProLink-tagged ADRB1 and forces complementation of the two enzyme fragments, resulting in the formation of an active β-galactosidase enzyme. Briefly, CHO-K1-ADRB1 PathHunter cell lines are plated in a total volume of 20 μL cell plating reagent (DiscoveRx, 93-0563R0A) at a density of 2,500 cells/well into 384 well microplates and incubated overnight at 37° C. in 5% CO2. […] Chemiluminescent signal is then read with a PerkinElmer Envision™ instrument. The results are expressed as a percent of the maximum efficacy achieved with isoproterenol.
Effects of compounds on β-arrestin signaling pathways are determined using CHO cells stably expressing human β1-adrenergic receptors or human β2-adrenergic receptors with PathHunter® β-Arrestin GPCR assay system (DiscoveRx). In this system, adrenergic receptor is fused in frame with the small enzyme fragment ProLink™ and co-expressed in cell stably expressing at fusion protein of β-arrestin and the larger, N-terminal deletion mutant of β-galactosidase enzyme. Activation of the adrenergic receptor stimulates binding of β-arrestin to the ProLink-tagged receptor and forces complementation of the two enzyme fragments, resulting in the formation of an active β-gal enzyme. This interaction leads to an increase in enzyme activity that can be measured using chemiluminescent detection reagents. The effects of compounds on β-arrestin signaling pathways are determined 90 minutes after incubating the cells with the test compounds.

ADRB2 = ADRB2 (Homo sapiens (Human), UniProt P07550); experiment: Tag-lite Adrenoceptor Beta2 receptor ligand binding assay; settings: Table 7; read-out: ADRB2 IC50 from binding assay
Chain of ADRB2 (P07550 whole entry): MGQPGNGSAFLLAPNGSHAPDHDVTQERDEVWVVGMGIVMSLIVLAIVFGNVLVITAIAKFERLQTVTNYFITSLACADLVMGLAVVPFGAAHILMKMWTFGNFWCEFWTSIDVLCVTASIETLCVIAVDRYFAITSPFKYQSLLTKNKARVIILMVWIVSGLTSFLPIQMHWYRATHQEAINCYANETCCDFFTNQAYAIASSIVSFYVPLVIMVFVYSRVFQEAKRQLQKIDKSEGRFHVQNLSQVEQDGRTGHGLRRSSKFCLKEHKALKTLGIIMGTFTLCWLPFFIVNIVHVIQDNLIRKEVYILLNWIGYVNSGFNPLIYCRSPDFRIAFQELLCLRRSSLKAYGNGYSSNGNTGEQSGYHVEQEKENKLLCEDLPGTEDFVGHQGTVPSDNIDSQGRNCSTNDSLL
Procedure: as §1, with “The subtype selective activity of some compounds of interest was assessed for adrenergic receptor beta 1 (ADRB1) versus adrenergic receptor beta 2 (ADRB2). ADRB1 EC50” for “ADRB1 EC50”

C57BI/6J female mice = experiment: 24 day administration, lung and heart weight and fibrosis; assay type: in vivo; settings: 10 mg/kg for 24 days
Procedure: C57BI/6J female mice were administered with isoproterenol, KSN01-01-15, or KSN01-01-18 at 10 mg/kg for 24 days. After 24 days of treatment, mice were sacrificed, and lung and heart weight were measured. Hearts were then fixed in 10% formalin, and stained with Masson trichrome for evaluation of fibrosis.

[6] = Table 3, read-out: cAMP pathway ADRB1 EC50
[7] = Table 4, read-out: cAMP pathway ADRB1 EC50
[8] = Table 4, read-out: β-arrestin pathway ADRB1 EC50
[9] = Table 7, read-out: ADRB1 EC50 from functional assay

O=C(NCCNC[C@H](O)COc1ccc(O)cc1)N1CCOCC1 [(S)-Xamoterol, reference compound]
Ki [1]: > 10000 nM | inhibition of LPS-induced TNF-α production ([2]; rat primary microglia, LPS 10 ng/ml, compound 10 μM): approximately 60% | LPS-induced TNF-α response in periphery (plasma) [3]: markedly inhibited | LPS-induced inflammatory response in the brain (TNF-α, IL-1β, IL-6 gene expression) [3]: attenuated

O=C(NCCNC[C@H](O)COc1cc(F)c(O)cc1F)N1CCOCC1 [Compound 28]
Emax (ADRB1 [4]; Table 3): 21.5 ± 0.5% | EC50 (ADRB1 [4]; [6]): 1 to 10 nM

N#Cc1cc(OC[C@@H](O)CNCCNC(=O)N2CCOCC2)ccc1O [Compound 29]
EC50 (ADRB1 [4]; [6]): 1 to 10 nM

COc1ccc(CCOCCNC[C@H](O)COc2ccc(O)cc2)cc1OC [Compound 44]
Emax (ADRB1 [4]; Table 4): 60.2 ± 9.9% | EC50 (ADRB1 [4]; [7]): 100 to 1000 nM | β-arrestin pathway % Iso max (ADRB1 [5]; Table 4): 14% | EC50 (ADRB1 [5]; [8]): 100 to 1000 nM

O=C(CCCNC[C@H](O)COc1ccc(O)cc1)N1CCOCC1 [Compound 45]
Emax (ADRB1 [4]; Table 4): 71.9 ± 1.3% | EC50 (ADRB1 [4]; [7]): 10 to 100 nM | β-arrestin pathway % Iso max (ADRB1 [5]; Table 4): 18.6% | EC50 (ADRB1 [5]; [8]): 100 to 1000 nM

O=C(CCNC[C@H](O)COc1ccc(O)cc1)N1CCOCC1 [Compound 46]
Emax (ADRB1 [4]; Table 4): 73.9 ± 10.2% | EC50 (ADRB1 [4]; [7]): 100 to 1000 nM | β-arrestin pathway % Iso max (ADRB1 [5]; Table 4): 13.7% | EC50 (ADRB1 [5]; [8]): 10 to 100 nM

O=C(NCCNC[C@H](O)COc1ccc(O)cc1)N1CC(O)C1 [Compound 47]
Emax (ADRB1 [4]; Table 4): 42 ± 2.4% | EC50 (ADRB1 [4]; [7]): 100 to 1000 nM | concentration-dependent response at the β-arrestin pathway (ADRB1 [5]): did not produce concentration-dependent response up to 30 μM

O=C(NCCNC[C@H](O)COc1ccc(O)cc1)N1CC(CO)C1 [Compound 48]
Emax (ADRB1 [4]; Table 4): 40.1 ± 3.9% | concentration-dependent response at the β-arrestin pathway (ADRB1 [5]): did not produce concentration-dependent response up to 30 μM

COc1ccc(CCNCC(O)COc2ccc(O)c(O)c2)cc1OC (centres unmarked) [Compound 50]
agonistic activity on the ADRB1-mediated cAMP pathway (ADRB1 [4]): full agonistic activity | EC50 (ADRB1 [4]; [7]): 1 to 10 nM | efficacy at the β-arrestin pathway compared to the full agonist isoproterenol (ADRB1 [5]): 36.5% | β-arrestin pathway % Iso max (ADRB1 [5]; Table 4): 36.5% | EC50 (ADRB1 [5]; [8]): 10 to 100 nM | EC50 (ADRB1 [5]; read-out: EC50 at the β-arrestin pathway via ADRB1): 32.2 nM

COc1ccccc1OCCNC[C@H](O)COc1cccc2[nH]nc(C)c12 [Compound 52]
EC50 (ADRB1 [4]; [9]): 9.2 nM | IC50 (ADRB2): 0.024 nM

COc1ccc(OCCNC[C@H](O)COc2cccc3[nH]nc(C)c23)cc1OC [Compound 55]
EC50 (ADRB1 [4]; [9]): 35.4 nM | IC50 (ADRB2): 0.38 nM

Cc1n[nH]c2cccc(OC[C@@H](O)CNCCc3ccccc3C(F)(F)F)c12 [Compound 69]
EC50 (ADRB1 [4]; [9]): 1 nM | IC50 (ADRB2): 0.048 nM

COc1ccccc1CC(C)NC[C@H](O)COc1cccc2[nH]nc(C)c12 (some centres unmarked) [Compound 72]
EC50 (ADRB1 [4]): 0.8 nM | IC50 (ADRB2): 0.009 nM

Cc1n[nH]c2cccc(OC[C@@H](O)CNC(C)(C)C)c12 [Compound 75]
EC50 (ADRB1 [4]; [9]): 3.5 nM | IC50 (ADRB2): 0.065 nM | fibrotic changes in heart and heart weight (C57BI/6J female mice): did not induce these changes | fibrotic changes in lung and lung weight (C57BI/6J female mice): did not induce these changes | morphological changes in heart (C57BI/6J female mice): did not induce these changes

Cc1n[nH]c2cccc(OC[C@@H](O)CNC(C)(C)COc3ccccn3)c12 [Compound 86]
EC50 (ADRB1 [4]; [9]): 44.7 nM | IC50 (ADRB2): 0.144 nM

Cc1n[nH]c2cccc(OC[C@@H](O)CNCCOc3ccccn3)c12 [Compound 87]
EC50 (ADRB1 [4]; [9]): 5 nM | IC50 (ADRB2): 0.23 nM

COCC(C)(C)NC[C@H](O)COc1cccc2[nH]nc(C)c12 [Compound 90]
EC50 (ADRB1 [4]; [9]): 3.4 nM | IC50 (ADRB2): 0.019 nM

CC(C)NCC(O)c1ccc(O)c(O)c1 (centres unmarked) [isoproterenol, reference compound]
inhibition at 10 µM ([2]; Rattus norvegicus, Microglia, read-out: inhibition of LPS-induced TNF-α production): 85% | fibrotic changes in heart and heart weight (C57BI/6J female mice): induces fibrotic changes in heart and increases heart weight | fibrotic changes in lung and lung weight (C57BI/6J female mice): induces fibrotic changes in lung and increases lung weight | morphological changes in heart (C57BI/6J female mice): produces morphological changes in heart
